{"source": "paper PMC8426393", "about": "“Interactions of anti-COVID-19 drug candidates with hepatic transporters may cause liver toxicity and affect pharmacokinetics” (Scientific Reports, 2021)", "key": {"ABCC2/MRP2": {"molecular_target": "T1, ABCC2/MRP2 (Homo sapiens, UniProt Q92887)", "T1 construct": "made in house; host or cells: Sf9 insect cells (baculovirus)", "T1 sequence (Q92887 whole entry)": "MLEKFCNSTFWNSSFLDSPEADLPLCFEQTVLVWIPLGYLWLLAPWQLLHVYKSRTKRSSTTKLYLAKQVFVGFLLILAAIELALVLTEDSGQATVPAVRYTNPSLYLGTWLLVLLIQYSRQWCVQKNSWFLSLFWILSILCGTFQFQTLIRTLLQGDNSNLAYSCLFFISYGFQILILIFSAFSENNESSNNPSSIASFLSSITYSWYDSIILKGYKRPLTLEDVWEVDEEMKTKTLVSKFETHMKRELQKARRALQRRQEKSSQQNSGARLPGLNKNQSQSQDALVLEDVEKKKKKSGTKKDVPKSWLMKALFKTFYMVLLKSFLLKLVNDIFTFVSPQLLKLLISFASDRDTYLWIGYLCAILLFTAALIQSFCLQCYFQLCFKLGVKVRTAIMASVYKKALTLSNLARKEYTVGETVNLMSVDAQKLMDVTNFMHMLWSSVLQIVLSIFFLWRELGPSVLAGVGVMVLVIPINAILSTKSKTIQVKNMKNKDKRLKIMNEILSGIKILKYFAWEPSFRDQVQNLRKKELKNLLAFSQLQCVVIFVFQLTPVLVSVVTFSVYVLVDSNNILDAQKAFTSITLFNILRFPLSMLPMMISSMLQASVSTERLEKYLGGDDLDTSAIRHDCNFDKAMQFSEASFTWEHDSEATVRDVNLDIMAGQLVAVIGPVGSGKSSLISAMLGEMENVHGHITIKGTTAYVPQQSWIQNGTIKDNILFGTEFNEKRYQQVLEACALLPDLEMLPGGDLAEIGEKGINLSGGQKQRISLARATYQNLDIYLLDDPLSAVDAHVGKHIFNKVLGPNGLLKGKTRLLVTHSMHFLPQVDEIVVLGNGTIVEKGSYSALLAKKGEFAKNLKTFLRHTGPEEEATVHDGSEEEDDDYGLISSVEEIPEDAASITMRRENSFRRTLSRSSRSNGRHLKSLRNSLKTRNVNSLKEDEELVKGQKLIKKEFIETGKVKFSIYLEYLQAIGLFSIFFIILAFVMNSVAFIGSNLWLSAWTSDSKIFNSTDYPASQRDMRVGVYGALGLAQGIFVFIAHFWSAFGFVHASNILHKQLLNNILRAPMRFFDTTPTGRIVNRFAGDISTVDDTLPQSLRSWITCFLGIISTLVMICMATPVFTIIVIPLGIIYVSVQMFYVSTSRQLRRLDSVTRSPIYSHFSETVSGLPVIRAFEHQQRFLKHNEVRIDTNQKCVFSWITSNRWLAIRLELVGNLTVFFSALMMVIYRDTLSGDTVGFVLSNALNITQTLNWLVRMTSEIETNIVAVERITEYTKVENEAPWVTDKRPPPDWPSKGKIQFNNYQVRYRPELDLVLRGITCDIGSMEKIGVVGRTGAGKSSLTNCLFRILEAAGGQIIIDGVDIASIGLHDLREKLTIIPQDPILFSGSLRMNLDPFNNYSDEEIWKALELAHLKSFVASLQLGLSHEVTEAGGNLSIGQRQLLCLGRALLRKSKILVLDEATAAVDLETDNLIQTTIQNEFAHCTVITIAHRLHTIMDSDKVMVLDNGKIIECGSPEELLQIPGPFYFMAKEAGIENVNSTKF", "experiment": "MRP2 vesicular transport: ATP-dependent CDCF uptake into inverted Sf9 membrane vesicles", "type": "biochemical", "settings": "CDCF 5 µM, 37 °C, 10 min, Sf9 vesicles"}, "ABCC3/MRP3": {"molecular_target": "T2, ABCC3/MRP3 (Homo sapiens, UniProt O15438)", "T2 construct": "purchased Solvo Biotechnology (Budapest, Hungary); host or cells: HEK-293 cells", "T2 sequence (O15438 whole entry)": "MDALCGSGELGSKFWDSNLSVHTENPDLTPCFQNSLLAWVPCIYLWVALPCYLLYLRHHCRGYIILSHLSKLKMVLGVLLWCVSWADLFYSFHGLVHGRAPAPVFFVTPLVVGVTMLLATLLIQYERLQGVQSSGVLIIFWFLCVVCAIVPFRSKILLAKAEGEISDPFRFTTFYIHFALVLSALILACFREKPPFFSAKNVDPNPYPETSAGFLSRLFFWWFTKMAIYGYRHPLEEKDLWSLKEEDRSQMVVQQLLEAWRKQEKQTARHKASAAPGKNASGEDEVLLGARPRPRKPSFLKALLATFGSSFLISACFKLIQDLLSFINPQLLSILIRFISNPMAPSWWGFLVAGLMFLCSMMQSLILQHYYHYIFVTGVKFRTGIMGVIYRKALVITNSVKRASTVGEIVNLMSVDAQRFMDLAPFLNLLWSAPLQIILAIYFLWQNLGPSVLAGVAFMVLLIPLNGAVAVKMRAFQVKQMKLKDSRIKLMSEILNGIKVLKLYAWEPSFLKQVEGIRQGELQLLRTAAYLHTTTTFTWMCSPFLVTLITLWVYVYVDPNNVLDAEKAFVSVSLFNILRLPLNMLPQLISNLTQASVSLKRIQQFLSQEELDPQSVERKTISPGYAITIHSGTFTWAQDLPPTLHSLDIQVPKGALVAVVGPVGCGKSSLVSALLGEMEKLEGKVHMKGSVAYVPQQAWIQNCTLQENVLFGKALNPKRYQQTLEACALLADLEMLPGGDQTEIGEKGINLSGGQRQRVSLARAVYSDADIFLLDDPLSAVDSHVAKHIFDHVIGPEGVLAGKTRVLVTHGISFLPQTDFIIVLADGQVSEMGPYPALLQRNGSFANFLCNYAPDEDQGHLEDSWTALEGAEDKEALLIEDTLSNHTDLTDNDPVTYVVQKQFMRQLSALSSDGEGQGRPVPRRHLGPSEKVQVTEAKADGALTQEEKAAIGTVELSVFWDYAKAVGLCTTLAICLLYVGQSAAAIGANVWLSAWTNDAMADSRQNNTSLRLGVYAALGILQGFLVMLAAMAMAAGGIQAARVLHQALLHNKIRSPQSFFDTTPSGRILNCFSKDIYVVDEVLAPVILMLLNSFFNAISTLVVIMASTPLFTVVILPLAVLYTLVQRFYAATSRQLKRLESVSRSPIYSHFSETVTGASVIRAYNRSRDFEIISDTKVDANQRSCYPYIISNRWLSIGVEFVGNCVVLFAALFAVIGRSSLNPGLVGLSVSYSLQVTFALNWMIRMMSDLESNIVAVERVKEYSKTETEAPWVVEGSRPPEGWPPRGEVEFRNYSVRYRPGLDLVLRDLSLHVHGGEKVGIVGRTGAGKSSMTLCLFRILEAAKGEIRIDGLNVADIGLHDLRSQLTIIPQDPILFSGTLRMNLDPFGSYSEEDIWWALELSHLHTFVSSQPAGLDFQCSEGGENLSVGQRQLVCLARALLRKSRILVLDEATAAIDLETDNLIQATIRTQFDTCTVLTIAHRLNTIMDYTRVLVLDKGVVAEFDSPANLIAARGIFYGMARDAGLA", "experiment": "MRP3 vesicular transport: ATP- and benzbromarone-sensitive CDCF uptake into inverted HEK-293 membrane vesicles", "type": "biochemical"}, "ABCC4/MRP4": {"molecular_target": "T3, ABCC4/MRP4 (Homo sapiens, UniProt O15439)", "T3 construct": "purchased Solvo Biotechnology (Budapest, Hungary); host or cells: HEK-293 cells", "T3 sequence (O15439 1-1325)": "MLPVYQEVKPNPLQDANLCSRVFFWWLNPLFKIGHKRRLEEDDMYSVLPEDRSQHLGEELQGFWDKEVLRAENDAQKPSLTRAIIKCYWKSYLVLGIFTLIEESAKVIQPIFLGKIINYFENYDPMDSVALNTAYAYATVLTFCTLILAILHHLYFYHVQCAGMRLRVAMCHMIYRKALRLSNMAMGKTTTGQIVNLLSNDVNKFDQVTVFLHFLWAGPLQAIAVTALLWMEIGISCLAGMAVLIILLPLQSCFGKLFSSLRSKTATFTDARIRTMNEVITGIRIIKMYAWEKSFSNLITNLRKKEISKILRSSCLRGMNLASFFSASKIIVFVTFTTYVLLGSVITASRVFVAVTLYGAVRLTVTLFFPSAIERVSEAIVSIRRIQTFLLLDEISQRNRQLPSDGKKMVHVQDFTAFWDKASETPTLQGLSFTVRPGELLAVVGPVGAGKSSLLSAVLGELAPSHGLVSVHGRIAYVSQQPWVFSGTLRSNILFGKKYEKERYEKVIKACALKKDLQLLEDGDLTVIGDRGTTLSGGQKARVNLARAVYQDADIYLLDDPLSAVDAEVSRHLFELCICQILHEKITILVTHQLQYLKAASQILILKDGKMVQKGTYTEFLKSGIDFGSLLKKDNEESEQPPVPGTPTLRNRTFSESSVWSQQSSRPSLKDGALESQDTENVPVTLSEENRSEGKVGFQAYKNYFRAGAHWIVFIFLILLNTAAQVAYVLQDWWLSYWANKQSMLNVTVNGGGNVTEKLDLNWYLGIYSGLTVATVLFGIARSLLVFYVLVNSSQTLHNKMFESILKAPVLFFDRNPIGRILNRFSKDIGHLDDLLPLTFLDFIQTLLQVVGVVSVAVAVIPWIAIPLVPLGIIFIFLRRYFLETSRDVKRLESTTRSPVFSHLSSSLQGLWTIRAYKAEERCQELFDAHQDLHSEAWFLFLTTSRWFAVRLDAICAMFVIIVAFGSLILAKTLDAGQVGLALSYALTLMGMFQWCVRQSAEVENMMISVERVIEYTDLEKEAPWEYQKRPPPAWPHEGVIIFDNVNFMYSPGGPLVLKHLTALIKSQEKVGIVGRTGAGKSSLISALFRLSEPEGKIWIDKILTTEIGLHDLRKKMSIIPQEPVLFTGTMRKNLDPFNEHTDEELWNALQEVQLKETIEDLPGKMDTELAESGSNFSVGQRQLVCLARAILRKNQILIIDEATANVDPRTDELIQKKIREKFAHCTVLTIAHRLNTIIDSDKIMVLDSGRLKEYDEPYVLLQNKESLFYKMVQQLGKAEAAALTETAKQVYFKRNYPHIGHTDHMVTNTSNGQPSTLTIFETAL", "experiment": "MRP4 vesicular transport: ATP-dependent DHEAS uptake into inverted HEK-293 membrane vesicles", "type": "biochemical", "settings": "DHEAS 0.5 µM, 32 °C, […], HEK-293 vesicles"}, "ABCB11/BSEP": {"molecular_target": "T4, ABCB11/BSEP (Homo sapiens, UniProt O95342)", "T4 construct": "purchased Solvo Biotechnology (Budapest, Hungary); host or cells: HEK-293 cells", "T4 sequence (O95342 whole entry)": "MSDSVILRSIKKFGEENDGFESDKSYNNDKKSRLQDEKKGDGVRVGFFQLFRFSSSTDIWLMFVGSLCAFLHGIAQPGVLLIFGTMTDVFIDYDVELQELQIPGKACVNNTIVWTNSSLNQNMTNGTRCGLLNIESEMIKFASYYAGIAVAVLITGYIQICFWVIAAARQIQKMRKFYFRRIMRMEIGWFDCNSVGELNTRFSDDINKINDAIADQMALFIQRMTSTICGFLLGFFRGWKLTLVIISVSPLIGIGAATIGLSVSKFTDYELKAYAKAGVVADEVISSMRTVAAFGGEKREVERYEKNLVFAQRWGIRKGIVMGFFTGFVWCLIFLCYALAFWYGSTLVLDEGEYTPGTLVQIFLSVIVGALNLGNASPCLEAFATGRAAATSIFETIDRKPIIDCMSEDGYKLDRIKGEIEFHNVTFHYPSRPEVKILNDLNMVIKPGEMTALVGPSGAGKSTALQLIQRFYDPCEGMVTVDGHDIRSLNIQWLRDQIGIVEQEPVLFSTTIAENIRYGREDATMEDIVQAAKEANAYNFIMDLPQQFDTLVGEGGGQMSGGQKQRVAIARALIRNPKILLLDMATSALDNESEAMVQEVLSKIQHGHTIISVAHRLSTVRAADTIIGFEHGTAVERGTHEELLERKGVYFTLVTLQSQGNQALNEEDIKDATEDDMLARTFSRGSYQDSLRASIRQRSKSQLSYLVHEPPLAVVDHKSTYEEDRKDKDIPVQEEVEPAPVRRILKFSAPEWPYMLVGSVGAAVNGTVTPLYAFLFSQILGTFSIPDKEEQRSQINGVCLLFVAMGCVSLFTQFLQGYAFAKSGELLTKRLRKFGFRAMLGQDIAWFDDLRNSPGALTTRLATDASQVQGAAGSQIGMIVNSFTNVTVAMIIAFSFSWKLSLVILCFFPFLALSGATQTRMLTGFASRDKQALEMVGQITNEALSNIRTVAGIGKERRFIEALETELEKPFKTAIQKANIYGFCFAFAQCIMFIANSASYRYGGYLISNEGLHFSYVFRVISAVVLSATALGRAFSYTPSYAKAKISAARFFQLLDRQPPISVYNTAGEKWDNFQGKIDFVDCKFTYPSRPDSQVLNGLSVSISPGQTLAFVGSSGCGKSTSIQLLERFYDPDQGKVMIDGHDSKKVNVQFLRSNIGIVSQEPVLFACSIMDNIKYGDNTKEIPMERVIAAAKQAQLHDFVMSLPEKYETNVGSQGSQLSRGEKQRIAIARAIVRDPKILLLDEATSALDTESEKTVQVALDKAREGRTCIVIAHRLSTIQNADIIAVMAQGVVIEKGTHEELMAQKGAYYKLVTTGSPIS", "experiment": "BSEP vesicular transport: ATP- and glyburide-sensitive taurocholate uptake into inverted HEK-293 membrane vesicles", "type": "biochemical", "settings": "taurocholate 2 µM, 37 °C, 10 min, HEK-293 vesicles"}, "MATE1/SLC47A1": {"molecular_target": "T5, MATE1/SLC47A1 (Homo sapiens, UniProt Q96FL8)", "T5 construct": "expressed in transfected cells; host or cells: MDCKII cells, lentiviral transduction", "T5 sequence (Q96FL8 1-570)": "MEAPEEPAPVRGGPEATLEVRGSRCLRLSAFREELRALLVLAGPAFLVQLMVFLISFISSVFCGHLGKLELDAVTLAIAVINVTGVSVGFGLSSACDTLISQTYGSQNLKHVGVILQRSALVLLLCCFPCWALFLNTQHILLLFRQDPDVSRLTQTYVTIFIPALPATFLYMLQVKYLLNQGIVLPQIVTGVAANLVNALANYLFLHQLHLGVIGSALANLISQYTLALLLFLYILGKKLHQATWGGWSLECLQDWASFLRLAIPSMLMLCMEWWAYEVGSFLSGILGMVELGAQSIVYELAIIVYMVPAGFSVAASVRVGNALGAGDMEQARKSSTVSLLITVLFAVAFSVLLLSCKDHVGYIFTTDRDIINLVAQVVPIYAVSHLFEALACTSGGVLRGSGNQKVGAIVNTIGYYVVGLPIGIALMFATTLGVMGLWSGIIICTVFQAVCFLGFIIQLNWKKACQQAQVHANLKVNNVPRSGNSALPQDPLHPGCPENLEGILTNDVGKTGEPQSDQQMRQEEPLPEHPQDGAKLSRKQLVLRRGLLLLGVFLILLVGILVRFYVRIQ", "experiment": "MATE1-dependent metformin uptake in MATE1-overexpressing MDCKII cells", "type": "cell-based", "settings": "metformin 10 µM, 10 min, 37 °C, MDCKII cells"}, "OCT1/SLC22A1": {"molecular_target": "T6, OCT1/SLC22A1 (Homo sapiens, UniProt O15245)", "T6 construct": "expressed in transfected cells; host or cells: HEK-293 cells, lentiviral transduction", "T6 sequence (O15245 1-554)": "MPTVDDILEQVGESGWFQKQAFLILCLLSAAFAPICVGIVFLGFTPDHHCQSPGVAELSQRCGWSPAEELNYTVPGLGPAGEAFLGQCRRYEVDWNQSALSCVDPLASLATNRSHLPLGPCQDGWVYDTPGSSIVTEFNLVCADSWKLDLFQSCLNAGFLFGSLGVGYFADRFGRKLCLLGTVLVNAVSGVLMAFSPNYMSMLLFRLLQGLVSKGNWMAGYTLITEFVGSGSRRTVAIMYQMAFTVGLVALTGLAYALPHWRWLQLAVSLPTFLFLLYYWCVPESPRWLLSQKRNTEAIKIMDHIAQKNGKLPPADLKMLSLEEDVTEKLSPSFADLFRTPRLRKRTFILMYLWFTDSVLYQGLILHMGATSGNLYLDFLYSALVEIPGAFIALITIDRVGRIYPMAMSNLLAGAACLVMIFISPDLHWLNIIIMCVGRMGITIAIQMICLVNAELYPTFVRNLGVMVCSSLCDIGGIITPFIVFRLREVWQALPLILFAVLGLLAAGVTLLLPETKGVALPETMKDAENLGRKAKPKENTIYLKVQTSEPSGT", "experiment": "OCT1-dependent metformin uptake in OCT1-overexpressing HEK-293 cells", "type": "cell-based"}, "ABCB1/Pgp": {"tested_on": "ABCB1/Pgp", "design": "method as in Telbisz et al., 2021", "settings": "vesicular transporter assay, measured previously; ref Telbisz et al., 2021; cited from earlier work"}, "ABCG2/BCRP": {"tested_on": "ABCG2/BCRP", "design": "method as in Telbisz et al., 2021", "settings": "vesicular transporter assay, measured previously; ref Telbisz et al., 2021; cited from earlier work"}, "[1]": {"settings": "Kaletra 400 mg lopinavir and 100 mg ritonavir in combination; cited from earlier work"}}, "note": "“Also recorded” adds a separate entry of the source.", "data": [{"compound": "CC(C)c1nc(CN(C)C(=O)N[C@H](C(=O)N[C@@H](Cc2ccccc2)C[C@H](O)[C@H](Cc2ccccc2)NC(=O)OCc2cncs2)C(C)C)cs1", "note": "[RIT, ritonavir]", "values": [{"measurement": "ABCC2/MRP2 Type of effect", "setting": "ABCC2/MRP2", "value": "did not inhibit but rather increased the probe substrate transport at high concentrations; also recorded: Increase"}, {"measurement": "ABCC3/MRP3 Type of effect", "setting": "ABCC3/MRP3; CDCF 5 µM, 37 °C, 10 min, HEK-293 vesicles", "value": "inh"}, {"measurement": "concentration at which MRP3 transport is inhibited", "setting": "ABCC3/MRP3; CDCF uptake", "value": "lower than 10 µM"}, {"measurement": "ABCC4/MRP4 Type of effect", "setting": "ABCC4/MRP4", "value": "No effect"}, {"measurement": "ABCB11/BSEP Type of effect", "setting": "ABCB11/BSEP", "value": "strongly inhibited TC transport at low concentrations and inh"}, {"measurement": "MATE1/SLC47A1 Type of effect", "setting": "MATE1/SLC47A1", "value": "strong inhibitory action and inh"}, {"measurement": "OCT1/SLC22A1 Type of effect", "setting": "OCT1/SLC22A1; metformin 10 µM, 5 min, 37 °C, HEK-293 cells", "value": "strong inhibitory effect and inh"}, {"measurement": "concentration of strong inhibitory effect on OCT1", "setting": "OCT1/SLC22A1; metformin uptake", "value": "below 10 µM"}, {"measurement": "ABCB1/Pgp Type of effect", "setting": "ABCB1/Pgp", "value": "inh"}, {"measurement": "ABCG2/BCRP type of effect", "setting": "ABCG2/BCRP", "value": "inh"}, {"measurement": "peak plasma concentrations in vivo", "setting": "[1]", "value": "1 to 1.73", "unit": "µM"}]}]}
